Results on two compounds are retold here after patent US5229373A, “Use of exogenous gangliosides as a protective factor against toxicity by antitumor drug vincristine” (Fidia S.p.A., priority 1986, dated 1993).

The test system of one data set is melanoma B16. Put plainly: Antitumoral effect of Vincristine with and without CRONASSIAL, melanoma B16. The class given is in vivo, mouse. Conditions: B16, host C57B1; VCR 0,5 mg/kg i.p. days 1-4, 7-11. On the procedure:
Female C57 B1 mice weighing 20 g. were used for experiments on melanoma B16.
This tumor was prepared by inoculation in the same way as that used for sarcoma S180.
(§1) A standard vial containing 1 mg of Vincristine was used. It was prepared with a suitable volume of diluting solution to give the final concentration required for injection into 0.1 ml/10 g. of body weight.
(§2) A solution of this substance, which is a mixture of four gangliosides, was prepared by adding a volume of sterile distilled water suffi- cient to give a concentration of 200 mg/kg in a volume of 0.2 ml. This dose is administered to mice weighing approximately 20 g.

Data set [1] can be described thus: Effect of ganglioside treatment on chronic Vincristine toxicity (lethality after sub-chronic pre-treatment or post-treatment). In kind it is in vivo, mouse. Conditions: mouse, in vivo, iv, Table 4, read-out: Mortality rate, %. On the procedure: (§3) Male mice CD-1 (ICR) BR (Charles River, Italy) weighing 25-30 g were used for the whole experiment. The animals were housed in groups of 10 per cage and fed with standard laboratory chow and tap water ad libitum. The animals were housed at constant room temperature (21°±1° C.) and relative humidity (60%) with controlled cycles of light/dark (light from 8.00 a.m. to 8.00 p.m.).
(§4) Vincristine sulphate (Lilly) was dissolved in saline and injected i.v. in a dose volume of 10 ml/kg, whereas the gangliosides were solubilized in a phosphate buffer (0.01M; pH 7.5) containing 0.8% of NaCl and administered i.m. at a dose volume of 5 ml/kg.
(§5) The ganglioside mixture (or vehicle) was administered i.m. daily for 5 consecutive days at different doses (50, 100 and 200 mg/kg) and Vincristine was injected i.v. 5 hours after the last treatment with gangliosides (or vehicle) in doses of 2.4 and 2.6 mg/kg.
(§6) The ganglioside mixture (or vehicle) was administered i.m. in doses of 200 mg/kg 5 hours before i.v. treatment with Vincristine for 5 consecutive days
(§7) The doses of Vincristine were of 2.2, 2.4 and 2.6 mg/kg.
(§8) The mortality rate was estimated by the number of animals that died within the first 14 days of Vincristine treatment.
(§9) The statistical significance between mortality rates was assessed by means of Fisher's exact probability test.
(§10) The results of the tests are reported in Tables 3 and 4 and graphed in FIG. 1. On the basis of the mortality rate curve after administration of Vincristine, doses between 2 and 3 mg/kg were chosen for the investigation with gangliosides. The first experiment compared the effects of ganglioside treatment before and after Vincristine injection.
(§11) In the case of post-treatment, a single administration of gangliosides was given in order to exclude the possibility that the greater efficacy of pre-treatment with gangliosides in reducing Vincristine toxicity, might only be due to the last ganglioside injection.

A further data set relates to Male mice CD-1 (ICR) BR. Described as above. In kind it is in vivo, mouse. To be noted: for Mortality rate: Table 3; for Mortality rate, No.: Table 4. The protocol:
as §3, §4, §5, §6, §7, §8, §9, §10, §11

A further data set deals with leukemia L1210. Put plainly: Antitumoral effect of Vincristine with and without CRONASSIAL, leukemia L1210. The class given is in vivo, mouse. On the procedure: Male BDF1 mice weighing 30 g. were used for experiments on leukemia L1210.
Spleens were removed from the animals 7 days after inoculation of L1210 cells and were then finely minced with isotonic saline 1:100. 0.1 ml of this spleen and leukemia L1210 cell suspension was then injected s.c. into the flank of each BDF1 mouse.
as §1, §2

A further data set concerns mouse. Put plainly: Effect of gangliosides on acute Vincristine toxicity (acute lethality, single i.v. dose). Conditions: Vincristine 3.0 mg/kg e.v. alone. In kind it is in vivo. The protocol: The mice were subdivided into groups of not more than 8 in standard cages. Food and water were provided ad lib. The animals were housed in rooms under strictly controlled conditions.
1 mg of Vincristine was diluted to obtain the concentration necessary to inject 0.1 ml/10 g. body weight.
A solution of gangliosides was prepared by addition of sterile distilled water in a quantity sufficient to obtain a final concentration of 200 mg/kg in a volume of 0.2 ml. This dose was administrated to mice weighing about 20g.

Another data set concerns sarcoma S180. Put plainly: Antitumoral effect of Vincristine with and without CRONASSIAL, sarcoma S180. The class given is in vivo, mouse. Conditions: S180, host SN; VCR 0,5 mg/kg i.p. days 1-6. On the procedure:
Male Swiss Schneider mice weighing 27 g. were used for experiments on sarcoma S180.
This tumor has been transplanted into the same strain of mouse in this laboratory for over 10 years. The transplant was carried out by s.c.inoculation of 0.1 ml of a tumoral homogenate obtained by finely mincing viable tumoral tissue, passed repeatedly through a 26 gauge needle into a sterile Petri dish. 0.1 ml of Penicillin (20,000 u/ml) and streptomycin (20,000 u/ml) were added to the solution. 5 mg of Neomycin were also added.
as §1, §2

For the next data set, the system named is VCR-induced neuropathy. Conditions: electrophysiology, studies in man; cited from earlier work.
Data set [2] concerns 3T3, neuroblastoma, glioma. Conditions: exogenous addition; cited from earlier work.
Where [3] appears, read: subchronic vehicle + VCR 2.4 mg/kg i.v.
The mark [4] stands for this setting: subchronic vehicle + VCR 2.6 mg/kg i.v.

Where two headings read alike, the source gives them in different places.

For `CC[C@]1(O)C[C@H]2CN(CCc3c([nH]c4ccccc34)[C@@](C(=O)OC)(c3cc4c(cc3OC)N(C=O)[C@H]3[C@@](O)(C(=O)OC)[C@H](OC(C)=O)[C@]5(CC)C=CCN6CC[C@]43[C@@H]65)C2)C1` [Vincristine], the Mean tumor weight in the data set with melanoma B16 was 1,46 g; in the data set with sarcoma S180, 0,64 g. Further, the mortality – broadly, the percentage killed – at 336 h in data set [1] (setting [3]) was 38%; in data set [1] (setting [4]) it was 60%. In addition, the Mortality rate in the data set on Male mice CD-1 (ICR) BR (vehicle + VCR 2.4 mg/kg i.v.) was 7/10; in the data set on Male mice CD-1 (ICR) BR (vehicle + VCR 2.6 mg/kg i.v.), 5/10. Besides, the “Mortality rate, No.” value in the data set on Male mice CD-1 (ICR) BR (setting [3]) is 19/50; in the data set with Male mice CD-1 (ICR) BR (setting [4]), 30/50. Moreover, the Mean survival time with leukemia L1210 (L1210, host BDF1, VCR 1,0 mg/kg i.p. days 1-3) is 7,8 gg. This compound also showed an average survival time in the data set on leukemia L1210 (L1210, Vincristine alone) of 7.8 days. Moreover, in the data set with mouse, the “No. Survivors at 30 days” value was 2/8. Besides, the “type of VCR-induced neuropathy” value in the data set on VCR-induced neuropathy is reported as “dying-back type”.

Take II^3 NeuAcGgOse4 Cer [GM1]: the “cell growth and contact inhibition” value in data set [2] is “inhibits cell growth and induces contact inhibition”.
